# According to publication PMC11219871, “Epigenetic-based differentiation therapy for Acute Myeloid Leukemia” (Nature Communications, 2024):
# “And” between values parts separate entries of the source, which are not always exact repeats. Equal values may be shown once. Read-outs that look alike come from different tables or passages of the source.
# Columns and labels:
# [1] = system: HL-60; assay: q-RT-PCR of MYC, CDKN2A, CDKN1A, GATA2, TAL1, CEBPA, SPI1; type: cell-based, human
# Protocol: (§1) RNA was extracted with TRIzol Reagent (Invitrogen) according to the manufacturer’s instructions. First, cDNA was synthesized from 1 µg of total RNA using the PrimeScript RT reagent Kit (Perfect Real Time) (Cat No RR037A, TaKaRa) following the manufacturer’s instructions. The quality of cDNA was checked by a multiplex PCR that amplifies PBGD, ABL, BCR and β2-MG genes. […] The following program conditions were used for the q-PCR: 50 °C for 2 min, 95 °C for 60 s following by 45 cycles at 95 °C for 15 s and 60 °C for 60 s; melting program, one cycle at 95 °C for 15 s, 40 °C for 60 s, and 95 °C for 15 s. The relative expression of each gene was quantified by the […] method using the gene GUS as an endogenous control. The sequence of primers used can be found in Supplementary Table 10.
# [2] = system: ML-2; assay: as above; type: cell-based, human
# Protocol: as §1
# [3] = system: MOLM-13; assay: as above; type: cell-based, human
# Protocol: as §1
# [4] = system: MV4-11; assay: as above; type: cell-based, human
# Protocol: as §1
# [5] = system: HL-60; assay: Cell-cycle analysis; type: cell-based, human; details: HL-60, treatment for 48 hours; replicates 1-3 (Figure 2F)
# Protocol: (§2) […] Next, the cells were washed twice with PBS and resuspended in 0.2% Tween 20 in PBS and 0.5 mg/mL Rnase A (Ribonuclease A Type III-A from bovine pancreas, Cat No. R5125, Sigma), and then incubated for 30 min at 37 °C. Subsequently, the cells were stained with 25 μg/mL of propidium iodide (Cat No P4170, Sigma) and analyzed using a BD FACSCanto flow cytometer (Becton Dickinson, San Jose, CA, USA).
# [6] = system: ML-2; assay: Cell-cycle analysis; type: cell-based, human; details: ML-2, treatment for 48 hours; replicates 1-3 (Figure 2F)
# Protocol: as §2
# [7] = system: MOLM-13; assay: Cell-cycle analysis; type: cell-based, human; details: MOLM-13, 48 hours
# Protocol: as §2
# [8] = system: MV4-11; assay: Cell-cycle analysis; type: cell-based, human; details: MV4-11, 48 hours
# Protocol: as §2
# [9] = Cryopreserved hepatocyte stability; type: in vitro ADME; details: read-out: Liver Hepatocytes Estimation T1/2
# Protocol: This study was conducted at Wuxi (http://www.wuxi.com/). […] Stock solutions of test compound (10 mM; 100% DMSO) and positive controls (7-ethoxycoumarin and 7-hydroxycoumarin; 30 mM; 100% DMSO) were diluted to 1 mM and 3 mM with DMSO and then diluted to 100 μM and 300 μM with acetonitrile (dosing solutions). Cryopreserved cells (from Human Donors, Bioreclamation IVT, Cat No. X008001 and from male C57 Mice, Bioreclamation IVT, Cat No. S00463) were thawed, isolated and suspended in Williams’ Medium E, then diluted with pre-warmed Williams’ Medium E to 0.5 × 10^6 cells/mL. Cell viability was tested by trypan blue exclusion after thawing. A volume of 2 μL of dosing solution and 198 μL of pre-warmed cell suspensions were added to a 96-well plate and incubated at 37 °C (5% CO2) with constant shaking at 600 rpm. Following different incubation times (0, 15, 30, 60 and 90 min), 20 μL of each sample was transferred to a well containing 80 μL of ice-cold stop solution (acetonitrile containing 200 ng/mL tolbutamide and 200 ng/mL labetalol as internal standards). Plates were vortexed at 27 g for 10 min and then centrifuged at 3220 × g for 20 min at 4 °C. An aliquot of supernatant (75 μL) was transferred from each well and mixed with 75 μL of ultra-pure water before submitting to LC-MS/MS analysis. Concentrations of test and control compounds were quantified by LC-MS/MS using a peak area ratio of analyte/internal standard, and the percent loss of the parent compound was calculated at each time point to determine the half-life (t1/2, min). Experiments were performed in duplicate.
# [10] = HL-60, replicates 1-3 (Figure 2E)
# [11] = HL-60, replicates 1-3 (Figure 2G)
# [12] = HL-60 treated daily for 48 h, replicates (Fig 6F)
# [13] = ML-2, replicates 1-3 (Figure 2E)
# [14] = ML-2, replicates 1-3 (Figure 2G)
# [15] = ML-2 treated daily for 48 h, replicates (Fig 6G)
# [16] = MOLM-13, daily treatment for 48 h, replicates 1-3
# [17] = MV4-11, daily treatment for 48 h, replicates 1-3
smiles,measurement,setting,value
"COc1cc2nc(-c3ccc(C)o3)cc(NCC3CCN(c4ncc(C(=O)NO)cn4)CC3)c2cc1OC [CM-444, 2-[4-[[[6,7-dimethoxy-2-(5-methyl-2-furyl)-4-quinolyl]amino]methyl]-1-piperidyl]pyrimidine-5-carbohydroxamic acid]","q-PCR of CDKN1A (p21), log10 (2-ΔΔCt)",[1]; [10],1.981 and 1.653 and 1.57
same,"q-PCR of CDKN2A (p16), log10 (2-ΔΔCt)",[1]; [10],0.3125 and 0.3822 and 0.4047
same,"q-PCR of MYC, log10 (2-ΔΔCt)",[1]; [10],-0.5893 and -0.4826 and -0.451
same,"q-PCR of CEBPA, log10 (2-ΔΔCt)",[1]; [11],0.7569 and 0.6258 and 0.5709
same,"q-PCR of GATA2, log10 (2-ΔΔCt)",[1]; [11],1.013 and 0.858 and 0.8451
same,"q-PCR of SPI1 (PU.1), log10 (2-ΔΔCt)",[1]; [11],0.7127 and 0.6825 and 0.8316
same,"q-PCR of TAL1 (SCL), log10 (2-ΔΔCt)",[1]; [11],0.1258 and 0.2369 and 0.3382
same,q-PCR of CEBPA,[1]; [12],1.462 log10 (2-ΔΔCt) and 1.7754 log10 (2-ΔΔCt) and 1.81 log10 (2-ΔΔCt)
same,q-PCR of GATA2,[1]; [12],0.8764 log10 (2-ΔΔCt) and 0.8459 log10 (2-ΔΔCt) and 0.7844 log10 (2-ΔΔCt)
same,q-PCR of MYC,[1]; [12],-0.6475 log10 (2-ΔΔCt) and -0.7277 log10 (2-ΔΔCt) and -0.6044 log10 (2-ΔΔCt)
same,q-PCR of SPI1,[1]; [12],0.6661 log10 (2-ΔΔCt) and 0.715 log10 (2-ΔΔCt) and 0.8576 log10 (2-ΔΔCt)
same,q-PCR of TAL1,[1]; [12],2.167 log10 (2-ΔΔCt) and 1.539 log10 (2-ΔΔCt) and 2.185 log10 (2-ΔΔCt)
same,"q-PCR of CDKN1A (p21), log10 (2-ΔΔCt)",[2]; [13],1.227 and 1.353 and 1.599
same,"q-PCR of CDKN2A (p16), log10 (2-ΔΔCt)",[2]; [13],0.6515 and 0.5026 and 0.5454
same,"q-PCR of MYC, log10 (2-ΔΔCt)",[2]; [13],-1.502 and -1.26 and -1.4
same,"q-PCR of CEBPA, log10 (2-ΔΔCt)",[2]; [14],0.9236 and 1.002 and 0.879
same,"q-PCR of GATA2, log10 (2-ΔΔCt)",[2]; [14],2.413 and 2.636 and 2.689
same,"q-PCR of SPI1 (PU.1), log10 (2-ΔΔCt)",[2]; [14],0.5237 and 0.6236 and 0.7619
same,"q-PCR of TAL1 (SCL), log10 (2-ΔΔCt)",[2]; [14],0.9258 and 1.226 and 0.9453
same,q-PCR of CEBPA,[2]; [15],1.15 log10 (2-ΔΔCt) and 1.105 log10 (2-ΔΔCt) and 1.112 log10 (2-ΔΔCt)
same,q-PCR of GATA2,[2]; [15],1.841 log10 (2-ΔΔCt) and 1.852 log10 (2-ΔΔCt) and 1.8708 log10 (2-ΔΔCt)
same,q-PCR of MYC,[2]; [15],-0.8138 log10 (2-ΔΔCt) and -0.7958 log10 (2-ΔΔCt) and -0.772 log10 (2-ΔΔCt)
same,q-PCR of SPI1,[2]; [15],0.6179 log10 (2-ΔΔCt) and 0.715 log10 (2-ΔΔCt) and 0.7068 log10 (2-ΔΔCt)
same,q-PCR of TAL1,[2]; [15],0.9832 log10 (2-ΔΔCt) and 1.433 log10 (2-ΔΔCt) and 0.7663 log10 (2-ΔΔCt)
same,"q-PCR of CEBPA, log10 (2-ΔΔCt)",[3]; [16],2.5418 and 2.486 and 2.37
same,"q-PCR of GATA2, log10 (2-ΔΔCt)",[3]; [16],1.451 and 1.32 and 1.2001
same,"q-PCR of MYC, log10 (2-ΔΔCt)",[3]; [16],-0.5166 and -0.6125 and -0.4922
same,"q-PCR of SPI1, log10 (2-ΔΔCt)",[3]; [16],0.3255 and 0.2581 and 0.1964
same,"q-PCR of TAL1, log10 (2-ΔΔCt)",[3]; [16],1.582 and 1.681 and 1.836
same,CDKN1A log10 (2-ΔΔCt),"[3]; MOLM-13, q-PCR",0.9026 and 0.7158 and 0.9504
same,CDKN2A log10 (2-ΔΔCt),"[3]; MOLM-13, q-PCR",0.7237 and 0.7926 and 0.8396
same,CEBPA log10 (2-ΔΔCt),"[3]; MOLM-13, q-PCR",1.789 and 1.635 and 1.622
same,GATA2 log10 (2-ΔΔCt),"[3]; MOLM-13, q-PCR",0.9826 and 1.026 and 1.05
same,MYC log10 (2-ΔΔCt),"[3]; MOLM-13, q-PCR",-0.5821 and -0.5713 and -0.4455
same,SPI1 log10 (2-ΔΔCt),"[3]; MOLM-13, q-PCR",0.02369 and 0.04258 and 0.1281
same,TAL1 log10 (2-ΔΔCt),"[3]; MOLM-13, q-PCR",1.526 and 1.626 and 1.825
same,"q-PCR of CEBPA, log10 (2-ΔΔCt)",[4]; [17],1.345 and 1.361 and 1.2654
same,"q-PCR of GATA2, log10 (2-ΔΔCt)",[4]; [17],2.051 and 2.02 and 2.0001
same,"q-PCR of MYC, log10 (2-ΔΔCt)",[4]; [17],-0.5124 and -0.645 and -0.6461
same,"q-PCR of SPI1, log10 (2-ΔΔCt)",[4]; [17],0.5839 and 0.521 and 0.5293
same,"q-PCR of TAL1, log10 (2-ΔΔCt)",[4]; [17],0.7218 and 0.3689 and 0.9897
same,CDKN1A log10 (2-ΔΔCt),"[4]; MV4-11, q-PCR",0.9858 and 0.7237 and 0.8689
same,CDKN2A log10 (2-ΔΔCt),"[4]; MV4-11, q-PCR",1.137 and 1.036 and 1.001
same,CEBPA log10 (2-ΔΔCt),"[4]; MV4-11, q-PCR",1.693 and 1.502 and 1.597
same,MYC log10 (2-ΔΔCt),"[4]; MV4-11, q-PCR",-0.5932 and -0.4926 and -0.5131
same,SPI1 log10 (2-ΔΔCt),"[4]; MV4-11, q-PCR",0.3258
same,TAL1 log10 (2-ΔΔCt),"[4]; MV4-11, q-PCR",0.527 and 0.4921 and 0.4657
same,Cell number (%) G1,[5],96.96% and 93.22% and 91.97%
same,Cell number (%) G2/M,[5],4.36% and 1.34% and 3.53%
same,Cell number (%) S,[5],1.70% and 3.26% and 3.67%
same,Cell number (%) G1,[6],96.26% and 93.16% and 96.12%
same,Cell number (%) G2/M,[6],0.0429% and 0.75% and 2.61%
same,Cell number (%) S,[6],2.99% and 4.24% and 3.84%
same,Cell number (%) G1,[7],98.91% and 98.32% and 98.59%
same,Cell number (%) G2/M,[7],0.29% and 0.03% and 0.73%
same,Cell number (%) S,[7],1.06% and 0.95% and 1.11%
same,Cell number (%) G1,[8],92.37% and 89.49% and 89.94%
same,Cell number (%) G2/M,[8],2.21% and 0.68% and 3.29%
same,Cell number (%) S,[8],6.95% and 7.22% and 7.84%
same,half-life at 1 µM,"[9]; cryopreserved hepatocytes, Human",71.1 min
same,half-life at 1 µM,"[9]; male, C57, cryopreserved hepatocytes, Mouse",22.8 min
